Laboratory results reported in patent publication US20160115540A1, “PRODRUGS AND DRUGS” (Biogen MA Inc., priority 2013, published 2016).
Structures can show the parent of a compound that is named as a salt.

System: blood and tissues
Assay: Transcriptional profiling, acute (single) dosing, EAE mice: blood and tissues
Type: in vivo
Excerpt: EAE induction is generally performed by immunization with brain extracts, CNS proteins (such as myelin basic protein), or peptides from such protein emulsified in an adjuvant such as complete Freund's adjuvant, e.g., as described in Linker et al., Brain. 2011 March 134(Pt3): 678-92. […] FIG. 17 depicts exemplary immunophenotyping panels used to analyze various immune cell populations (e.g., T cells, T regulatory cells, NK cells, B cells, myeloid cells). […] The number of independent mice whose tissues were harvested for transcript profiling studies and whose data passed QC is shown in TABLE 15. Animals were exposed to CO2 and whole blood collected via cardiac puncture. Two 100 μl aliquots of whole blood were collected in 1.5 mL microcentrifuge tubes and snap frozen in liquid nitrogen. Peripheral (liver, spleen, kidney and jejunum) and CNS brain (cerebellum, hippocampus, striatum and cortex) tissues were harvested and snap frozen in liquid nitrogen, with special care taken to collect tissues of similar size and from the same location. All samples were stored at -80° C. until RNA extraction was conducted. For RNA preparation, frozen tissues were placed in 2 mL RNAse-free 96-well blocks with 1.5 mL QIAzol Lysis Reagent (QIAgen) and a 3.2 mm stainless steel bead (BioSpec Products, Bartlesville, Okla.). Tissues were disrupted for four cycles of 45 seconds in a Mini-Beadbeater (Biospec Products). RNA was extracted in chloroform and the aqueous phase was mixed with an equal volume of 70% ethanol. Extracted RNA was applied to RNeasy 96 plates and purified by the spin method according to the manufacturer's protocol (RNeasy 96 Universal Tissue Protocol, QIAgen, Hilden Germany). 50 ul of snap frozen mouse blood was re-suspended in lysis buffer with proteinase K and arrayed into deep-well plates for automated RNA extraction. RNA extractions were completed on […] (Beckman Coulter, Indianapolis, Ind.) using Agencourt RNAdvance Blood kit (Part number A35604) according to the manufacturer's specifications. RNA integrity was assessed using the HT RNA reagent kit (Part number 760410, Caliper Life Sciences, Hopkinton, Mass.) using a LabChip GX (PerkinElmer, Waltham, Mass.). RNA samples with a RQS score of >8.0 were considered high quality for downstream microarray processing. […] Washing and staining of the hybridized arrays were completed as described in the GeneChip Expression analysis technical manual for HT plate arrays using the Genechip® Array Station (Affymetrix, Santa Clara, Calif.) with modifications as described in […] et al. The processed GeneChip® plate arrays were scanned using GeneTitan scanner (Affymetrix, Santa Clara, Calif.). Affymetrix scans were subject to quality control (QC) measures. These tests included a visual inspection of the distribution of raw signal intensities and an assessment of RNA degradation, relative log expression (RLE), and normalized unscaled standard error (NUSE). All sample scans that passed these QC metrics were included in the analysis. […] Nucleic Acids Res 2003; 31:e15; Li C, et al. Genome Biol 2001; 2:[…]0032). […] Stat Appl Genet Mol Biol 2004; 3:Article3). […] Springer Science+Business Media 2005). […] Generally, no distinct sample groupings were apparent from this analysis; however, in the following cohorts, differences in EAE severity across the mice were manifest in global gene expression patterns: An example of this animal grouping is shown in FIG. 33 for the spinal cord from the chronically-dosed 7 h EAE mice. […] Three distinct groups of mice result from unsupervised clustering, and these animal groups correlate with the cumulative EAE score. […] Subsequent analyses for the cohorts listed above only included those animals with the most severe EAE scores; however, for the cohorts 'Spinal Cord, Acute Dosing, 7 h' and 'Spleen, Acute Dosing, 12 h,' there were an insufficient number of mice in the different treatment groups to perform such a sub-analysis. […]

[1] = EAE, Acute Dosing, 90 mpk MMF-vs-Vehicle, 7 h after last dosing
[2] = EAE, Acute Dosing, 90 mpk MMF-vs-Vehicle, 12 h after last dosing
[3] = lymph node, 100MMF-vs-Veh, 12 h

## COC(=O)/C=C/C(=O)O [MMF, monomethyl fumarate]
[1]
  Number of differentially expressed genes identified: Brain: 0
  Number of differentially expressed genes identified: Cerebellum: 1
  Number of differentially expressed genes identified: Lymph Node: 6
  Number of differentially expressed genes identified: Spleen: 114
  Number of differentially expressed genes identified: Whole blood: 6
[2]
  Number of differentially expressed genes identified: Brain: 0
  Number of differentially expressed genes identified: Cerebellum: 1
  Number of differentially expressed genes identified: Lymph Node: 4
  Number of differentially expressed genes identified: Spinal Cord: 1
  Number of differentially expressed genes identified: Whole blood: 7
cerebellum, 100MMF-vs-Veh, 12 h
  FC 5830436I19Rik 1437136_PM_at: 1.87
cerebellum, 100MMF-vs-Veh, 7 h
  FC 1446570_PM_at: 1.51
Lymph node, 100MMF-vs-Veh, 7 h
  FC Aox1 (1419435_PM_at): 2.17
  FC F3 1417408_PM_at: 1.57
  FC Gclm 1439050_PM_at: 1.50
  FC Nqo1 (1423627_PM_at): 1.98
  FC Srxn1 (1419942_PM_at): 1.65
  FC Srxn1 (1426875_PM_s_at): 1.61
[3]
  FC 1446567_PM_at: 1.74
  FC 1457549_PM_at: 1.67
  FC 4930453J04Rik 1454406_PM_at: 1.76
  FC 5830436I19Rik 1437136_PM_at: 1.65
Spinal cord, 100MMF-vs-Veh, 12 h
  FC 1445562_PM_at: 2.11
spleen, 100MMF-vs-Veh, 7 h
  FC 1190002H23Rik 1438511_PM_a_at: 1.60
  FC 1438259_PM_at: 1.56
  FC 1443364_PM_at: 1.88
  FC 1443911_PM_at: 1.54
  FC 1444212_PM_at: 1.54
  FC 1446234_PM_at: 1.50
  FC 1447706_PM_at: 1.57
  FC 1451626_PM_x_at: 1.60
  FC 1452426_PM_x_at: 1.58
  FC 1458296_PM_at: 1.79
  FC 1458586_PM_at: 1.50
  FC 2410129H14Rik 1434664_PM_at: 1.74
  FC 2410129H14Rik 1455052_PM_a_at: 1.56
  FC 2610021A01Rik 1438786_PM_a_at: 1.55
  FC 4732418C07Rik 1446425_PM_at: 1.53
  FC 5730508B09Rik 1447100_PM_s_at: 1.91
  FC AI662270 1434067_PM_at: 1.52
  FC Abi1 1438506_PM_s_at: 1.61
  FC Aco1 (1456728_PM_x_at): 1.69
  FC Acp1 1422716_PM_a_at: 1.80
  FC Adk 1438292_PM_x_at: 1.54
  FC Ampd3 1422573_PM_at: 1.61
  FC Apol9a /// Apol9b 1424518_PM_at: 1.57
  FC Arhgap21 1428369_PM_s_at: 1.57
  FC Arl4a 1435092_PM_at: 2.26
  FC Arl6ip6 1424020_PM_at: 1.52
  FC B3galnt2 1454842_PM_a_at: 1.51
  FC Birc6 1442959_PM_at: 1.54
  FC C79407 1434767_PM_at: 1.95
  FC C1d 1416886_PM_at: 1.52
  FC C330027C09Rik 1449699_PM_s_at: 1.59
  FC Cat 1416429_PM_a_at: 1.51
  FC Ccl6 (1420249_PM_s_at): 1.57
  FC Cdyl 1418070_PM_at: 1.73
  FC Cenpa 1441864_PM_x_at: 1.86
  FC Chic2 1429050_PM_at: 1.67
  FC Cno 1459783_PM_s_at: 1.58
  FC Cpt1a 1434866_PM_x_at: 1.54
  FC Cpt1a 1438156_PM_x_at: 1.52
  FC Cul4a 1451971_PM_at: 1.71
  FC Cycs /// Gm10053 1456071_PM_a_at: 1.64
  FC D030056L22Rik 1455384_PM_x_at: 1.60
  FC Dck 1439012_PM_a_at: 1.59
  FC Dck 1449176_PM_a_at: 1.89
  FC Dctn6 1416499_PM_a_at: 1.53
  FC Dennd4a 1435975_PM_at: 1.71
  FC Ell2 1450744_PM_at: 1.58
  FC Elmo1 1424523_PM_at: 1.52
  FC Gclm 1439050_PM_at: 1.99
